Data on 17 compounds can be found in patent US6221914A, “Sulfonamide bridging compounds that inhibit tryptase activity” (Array Biopharma Inc., priority 1998, dated 2001).

Molecules are shown by their SMILES. pKi: −log10 of the molar value.

The target in one test is Human lung tryptase. Kind of test: Ki determination, human lung tryptase (Tosyl-Gly-Pro-Arg-pNA substrate). The note with it: 50 mM Tris-HCl pH 8.0, 37° C., 1 nM tryptase, 320 μM GPR-pNA; read-out: Experimentally Determined Ki, Tryptase. The class given is biochemical. As to the method:
(§1) Protease inhibition was assayed according to published procedures with minor modifications using various proteases and specific chromogenic peptide p-nitroanilide substrates. Assays were performed in Costar ultra-low cluster 96-well microtiter plate (Costar Corning Corp., Cambridge Mass.). Each protease was incubated with various concentrations of the test compound for 15 min. at 37° C. or as otherwise indicated, in specific assay buffer, and the residual activity was then measured by addition of the substrate. p-Nitroaniline produced by the proteolysis was determined by measuring the change in absorbance at 405 nm on a SpectraMAX 340 plate reader (Molecular devices, Sunnyvale, Calif.).
(§2) 1. The inhibition constant, Ki is calculated from individual data points using the equation for a tight-binding inhibitor (See Beith, "Proteinase Inhibitors-Proceedings of 2nd Int. Res. Conference", Fritz, et al. eds, New York, p.4463-4469 (1974)):
(§3) vi /vo [((Ki '+[I]+[E]o)^2 -4 [I]o
(§4) [E]o)^1/2 (Ki '+[I]o -[E]o)]/2[E]o
(§5) where Ki ' is apparent inhibition constant; vi and vo are the inhibited and uninhibited rates, respectively; [I]o and [E]o are the total concentrations of inhibitor and enzyme, respectively.
(§6) [note: [E]o is determined by active site titration of enzyme]
(§7) The Ki values are obtained by correcting Ki ' values for the effect of substrate concentration according to: [formula]
(§8) 2. Other inhibition data (Ki >>[E]o), the Ki is calculated from using the equations for a competitive inhibitor: [formula]
Human lung tryptase purchased from Cortex Biochem (San Leandro, Calif.) was purified further on a Superdex 200 gel-filtration column. The active-site concentration of the enzyme was determined by spectrophotometric titration with 4-nitrophenyl 4'-guanidinobenzoate according to Schwartz, et al., J. Immunol., 114, 2304-2311 (1990). Tryptase activity was measured according to the procedures of Schwartz, et al., J. Biol. Chem., 261, 7372-7379 (1986) (See also, Schwartz, L. B., Methods In Enzymology, 244, 88 (1994)) with minor modifications, using Tosyl-Gly-Pro-Arg-p-nitroanilide ("GPR-pNA", Sigma Chemical Co., St. Louis, Mo., T-1637) as a chromogenic substrate. The reaction was performed in 50 mM Tris-HCl, pH 8.0, containing 150 mM NaCl and 0.02% Triton X-100 at 37° C. in Costar ultra-low cluster 96-well microtiter plates (Costar Corning Corp., Cambridge, Mass.). The amount of pNA produced by tryptase was determined by measuring the change in absorbance at 405 nm on a SpectraMAX 340 plate reader (Molecular devices, Sunnyvale, Calif.). The Km for the substrate was determined by Lineweaver-Burk analysis from initial velocities of substrate hydrolysis. The inhibition assay was carried out in a total volume of 200 μL. Tryptase (30 μL- final concentration 1 nM) was incubated with various concentrations of sample compound (50 μL) to be tested in the above assay buffer for 5 min. The reaction was started by the addition of substrate GPR-pNA (40 μL-final concentration 320 μM), and the residual activity was measured after 15 min. of incubation. The inhibition constant, Ki, was determined by fitting the inhibition data to a two-site competitive binding equation using data analysis program GraphPad PRISM (GraphPad Software, Inc., San Diego, Calif.).
(§9) The inhibition constant (Ki) of the test compounds against each proteolytic enzyme was determined according to Zitnik et al., Biochem. Biophys. Res. Commun. 232, 687-697 (1997)).

Test [1] concerns the target T1, Human Neutrophil elastase (Homo sapiens, UniProt P08246).
T1 construct: from tissue; host or cells: human neutrophils
T1 sequence (P08246 30-267): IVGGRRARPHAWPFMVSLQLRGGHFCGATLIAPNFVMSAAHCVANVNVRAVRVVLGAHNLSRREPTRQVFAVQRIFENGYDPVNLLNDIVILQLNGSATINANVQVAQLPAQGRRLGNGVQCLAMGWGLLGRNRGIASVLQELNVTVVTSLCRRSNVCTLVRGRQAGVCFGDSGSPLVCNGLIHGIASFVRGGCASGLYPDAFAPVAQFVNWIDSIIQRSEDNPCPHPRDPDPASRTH
Kind of test: Ki determination, human neutrophil elastase (pyroGlu-Pro-Val-pNA). It counts as biochemical. The following applies: 100 mM Tris-HCl, pH 8.3, 0.96 M NaCl, 1% BSA; read-out: Experimentally Determined Ki, Elastase. Here is the method: as §1, §2, §3, §4, §5, §6, §7, §8
Human Neutrophil elastase activity was determined by using pyroGlu-Pro-Val-pNA in 100 mM Tris-HCl, pH 8.3, 0.96 M NaCl, 1% BSA (See Kramps, et al. Scand. J. Clin. Lab. Invest. 43, 427-432 (1983)).
as §9

Test [2] has as its system antigen-induced airway hyperresponsiveness in guinea pigs. In words: Guinea pig airway hyperresponsiveness inhibition (ovalbumin-sensitized, histamine bronchoprovocation). The note with it: 1 mg/kg, i.t., 1 hour before antigen challenge; histamine response 6 h after antigen. The class given is in vivo, guinea pig (male Hartley). Here is the method:
The compounds of the invention were tested for their ability to inhibit hyperresponsiveness in a guinea pig airway hyperresponsiveness screen according to the following protocol:
Male Hartley guinea pigs (Charles River Laboratories Inc., Wilmington, Mass.) were sensitized to ovalbumin by intraperitoneal injection with a 0.5 mL solution of 10 μg ovalbumin and 10 mg aluminum hydroxide in phosphate-buffered saline. […] Seven to nine weeks after the initial injection, the animals were used to evaluate antigen-induced guinea pig airway responses.
In order to evaluate antigen-induced airway hyperresponsiveness in guinea pigs, a baseline histamine bronchoprovocation was initially conducted in unrestrained animals. Guinea pigs (450-600 g) were placed in a whole body plethysmograph (Buxco Electronics, Troy, N.Y.). The animals were exposed to 5 second bursts of histamine aerosol generated by a DeVilbis ultrasonic nebulizer (Somerset, Pa.). […] Three days after the histamine baseline determination, the guinea pigs were again placed in the whole body plethysmograph and challenged with a 3 second aerosolized burst of 0.1% ovalbumin in phosphate-buffered saline. Six hours after antigen exposure, the development of hyperresponsiveness was evaluated by repeating the histamine bronchoprovocation. Comparisons between treatment groups were based on areas under the histamine dose response curves (AUC).
Test compounds were administered by intratracheal instillation at a dose of 1 mg/kg in PBS (pH 7.2), 1 hour before the antigen challenge. After anesthetizing a guinea pig with inhaled methoxyflurane, an endotracheal tube (18 gauge Teflon® sheath) was visually passed into the trachea with the aid of a fiberoptic light source. Test agents (or PBS for control animals) was dosed through the tube followed by a bolus of air to facilitate dispersion.
Two-way analysis of variance (ANOVA) followed by the Fisher PLSD test was used to evaluate areas under the curve ("AUC") for histamine dose responses in guinea pigs. Significance was accepted for p<0.05.

By pKi is commonly meant −log10 of the Ki, conventionally taken in molar units.

On to `N=C(N)c1cccc(S(=O)(=O)NCc2ccc(OCCCCCOc3ccc(CNS(=O)(=O)c4cccc(C(=N)N)c4)cc3)cc2)c1` [Example 41, 1,5-Bis-{4-[(3-carbamimidoyl-benzenesulfonylamino)-methyl]-phenoxy}-pentane], for which the values for the pKi (on Human lung tryptase; in test [1]) were 7.10 and below 4.00, respectively. For the same compound, in test [2], the “Hyperresponsiveness AUC % Inhibition” value turned out to be 95%.

For the compound `N=C(N)c1ccc(C(=O)NCc2ccc(OCCCCCOc3ccc(CNC(=O)c4ccc(C(=N)N)cc4)cc3)cc2)cc1` [Example 54, 1,5-Bis-{4-[(4-carbamimidoyl-benzenecarbonylamino)-methyl]-phenoxy}-pentane], the pKi in test [1] is below 4.00. Besides, the “Hyperresponsiveness AUC % Inhibition” value in test [2] is 53%.

As for `N=C(N)c1ccc(C(=O)NCc2ccc(OCCCCCCOc3ccc(CNC(=O)c4ccc(C(=N)N)cc4)cc3)cc2)cc1` [Example 56, 1,6-Bis-{4-[(4-carbamimidoyl-benzenecarbonylamino)-methyl]-phenoxy}-hexane], the pKi in test [1] was below 4.00. Also, in test [2], the “Hyperresponsiveness AUC % Inhibition” value stood at 62%.

As for `N=C(N)c1ccc(C(=O)NCc2ccc(OCCOc3ccc(CNC(=O)c4ccc(C(=N)N)cc4)cc3)cc2)cc1` [Example 64, 1,2-Bis-{4-[(4-carbamimidoyl-benzoylamino)-methyl]-phenoxy}-ethane], the pKi at Human lung tryptase was 7.30; in test [1], below 4.00.

For `N=C(N)c1cccc(C(=O)NCc2ccc(OCCOc3ccc(CNC(=O)c4cccc(C(=N)N)c4)cc3)cc2)c1` [Example 65, 1,2-Bis-{4-[(3-carbamimidoyl-benzoylamino)-methyl]-phenoxy}-ethane], the figures for the pKi (on Human lung tryptase; in test [1]) were 6.46 and below 4.00, respectively.

As to `N=C(N)c1ccc(C(=O)NCc2ccc(COCc3ccc(CNC(=O)c4ccc(C(=N)N)cc4)cc3)cc2)cc1` [Example 66, 1,3-Bis-{4-[(4-carbamimidoyl-benzenecarbonylamino)-methyl]-phenyl}-2-oxapropane], the pKi was 6.42 at Human lung tryptase and below 4.00 in test [1].

As for `CN(Cc1ccc(OCCCOc2ccc(CN(C)S(=O)(=O)c3cccc(C(=N)N)c3)cc2)cc1)S(=O)(=O)c1cccc(C(=N)N)c1` [Example 68, 1,3-Bis-{4-[(3-carbamimidoyl-benzenesulfonyl-[N-methyl]-amino)-methyl]-phenoxy}-propane], the figures for the pKi (at Human lung tryptase; in test [1]) were 7.70 and below 4.00, respectively.

Consider `N=C(N)c1ccc(C(=O)NCc2cccc(OCCCCCOc3cccc(CNC(=O)c4ccc(C(=N)N)cc4)c3)c2)cc1` [Example 76, 1,5-Bis-{3-[(4-carbamimidoyl-benzenecarbonylamino)-methyl]-phenoxy}-pentane], for which the values for the pKi (on Human lung tryptase; in test [1]) were 8.30 and below 4.00, respectively.

On to `N=C(N)c1cccc(C(=O)NCc2cccc(OCCCCCOc3cccc(CNC(=O)c4cccc(C(=N)N)c4)c3)c2)c1` [Example 77, 1,5-Bis-{3-[(3-carbamimidoyl-benzenecarbonylamino)-methyl]-phenoxy}-pentane], for which the pKi on Human lung tryptase was 8.00; in test [1], below 4.00.

For `N=C(N)c1ccc(C(=O)NCc2ccc(OCCCOc3ccc(CNC(=O)c4cccc(C(=N)N)c4)cc3)cc2)cc1` [Example 85, 4-Carbamimidoyl-N-[4-(3-{4-[(3-carbamimidoyl-benzoylamino)-methyl]-phenoxy}-propoxy)-benzyl]-benzamide], the pKi was 8.52 on Human lung tryptase and below 4.00 in test [1].

On to `N=C(N)c1ccc(C(=O)NCc2ccc(OCCCOc3ccc(CNS(=O)(=O)c4cccc(C(=N)N)c4)cc3)cc2)cc1` [Example 86, 4-Carbamimidoyl-N-[4-(3-{4-[(3-carbamimidoyl-benzenesulfonylamino)-methyl]-phenoxy}-propoxy)-benzyl]-benzamide], for which the values for the pKi (on Human lung tryptase; in test [1]) were 8.52 and below 4.00, respectively.

Regarding `N=C(N)c1ccc(C(=O)NCc2ccc(OCCCOc3ccc(CNC(=O)c4ccc(CN)cc4)cc3)cc2)cc1` [Example 87, N-[4-(3-{4-[(4-Aminomethyl-benzoylamino)-methyl]-phenoxy}-propoxy)-benzyl]-4-carbamimidoyl-benzamide], the pKi at Human lung tryptase was 8.70; in test [1] it was below 4.00.

Regarding `N=C(N)c1ccc(C(=O)NCc2ccc(OCC3(COc4ccc(CNC(=O)c5ccc(C(=N)N)cc5)cc4)CCC3)cc2)cc1` [Example 93, 1,1-Bis-{4-[(4-carbamimidoyl-benzoyl-amino)-methyl]-phenoxy-methyl}-cyclobutane], the values for the pKi (on Human lung tryptase; in test [1]) were 9.00 and below 4.00, respectively.

As for `N=C(N)c1ccc2cc(C(=O)NCc3ccc(OCCOc4ccc(CNC(=O)c5ccc6cc(C(=N)N)ccc6c5)cc4)cc3)ccc2c1` [Example 100, 1,2-Bis-{4-[(6-carbamimidoylnaphthalene-2-carbonylamino)-methyl]-phenoxy}-ethane], the pKi at Human lung tryptase was 9.70; in test [1] it was below 4.00.

For `N=C(N)c1ccc2[nH]c(CC(=O)NCc3ccc(OCCCOc4ccc(CNC(=O)Cc5nc6cc(C(=N)N)ccc6[nH]5)cc4)cc3)nc2c1` [Example 107, 2-(5-Carbamimidoyl-1H-benzoimidazol-2-yl)-N-{4,-[3-(4-{2-(5-carbamimidoyl-1H-benzoimidazol-2-yl)acetylaminol-methyl}-phenoxy)-propoxy]-benzyl}-acetamide], the pKi on Human lung tryptase is 7.92; in test [1], below 4.00.

With `N=C(N)c1ccc2[nH]c(CC(=O)NCc3ccc(OCCCCOc4ccc(CNC(=O)Cc5nc6cc(C(=N)N)ccc6[nH]5)cc4)cc3)nc2c1` [Example 109], the pKi on Human lung tryptase is 8.10; in test [1], below 4.00.

For `N=C(N)c1ccc2sc(C(=O)NCc3ccc(OCCCOc4ccc(CNC(=O)c5cc6cc(C(=N)N)ccc6s5)cc4)cc3)cc2c1` [Example 117, 1,3-Bis-{4-[(5-carbamidoyl-2-benzthiophenyl-carbamido)-methyl]-phenoxy}-propane], the pKi on Human lung tryptase was 7.92; in test [1], below 4.00.
